Source: patent US12724034B2, “Tryptophan optical probe, preparation method therefor and use thereof” (priority 2020, dated 2026)

How the values were obtained:
[1] = biological target: T1, Streptococcus pneumoniae tryptophan-binding protein 31ft (SEQ ID NO: 1) with cpYFP inserted at 263/265, optical sensor 31ft-263/265-cpYFP, SEQ ID NO: 6 (Streptococcus pneumoniae, UniProt A0A0H2UPV6, DELINS312-312[…]); settings: for response to amino acid (specific detection): specificity, FIG. 7
T1 construct: His-tag; pCDF, E. coli JM109(DE3), nickel-column purified
Description: (§1) 3. The centrifuged supernatant was purified by a self-packed nickel-column affinity chromatography column to obtain the protein, and the protein after nickel-column affinity chromatography was then passed through a self-packed desalting column to obtain the protein dissolved in 100 mM HEPES buffer (pH 7.4).

[2] = biological target: T2, Streptococcus pneumoniae tryptophan-binding protein 31ft (SEQ ID NO: 1) with cpYFP inserted at 263/266, optical sensor 31ft-263/266-cpYFP, SEQ ID NO: 7 (Streptococcus pneumoniae, UniProt A0A0H2UPV6, DELINS312-313[…]); settings: for response to amino acid (specific detection): specificity, FIG. 7
T2 construct: His-tag; E. coli JM109(DE3), nickel-purified
Description: as §1

[3] = biological target: T3, Streptococcus pneumoniae tryptophan-binding protein 31ft (SEQ ID NO: 1) with cpYFP inserted at 263/267, optical sensor 31ft-263/267-cpYFP, SEQ ID NO: 8 (Streptococcus pneumoniae, UniProt A0A0H2UPV6, DELINS312-314[…]); experiment: Titration and specificity detection, purified sensor 31ft-263/267-cpYFP; settings: 420/485 fluorescence ratio, concentration gradient tryptophan
T3 construct: His-tag; E. coli JM109(DE3), nickel-purified
Description: as §1

[4] = biological target: T4, Streptococcus pneumoniae tryptophan-binding protein 31ft (SEQ ID NO: 1) with cpYFP inserted at 263/268, optical sensor 31ft-263/268-cpYFP, SEQ ID NO: 9 (Streptococcus pneumoniae, UniProt A0A0H2UPV6, DELINS312-315[…]); experiment: Titration and specificity detection, purified sensor 31ft-263/268-cpYFP; settings: 420/485 fluorescence ratio, concentration gradient tryptophan
T4 construct: His-tag; E. coli JM109(DE3), nickel-purified
Description: as §1

[5] = biological target: T5, Streptococcus pneumoniae tryptophan-binding protein 31ft (SEQ ID NO: 1) with cpYFP inserted at 263/265, SEQ ID NO: 6 (Streptococcus pneumoniae, UniProt A0A0H2UPV6, DELINS312-312[…]); experiment: Tryptophan response screening, disrupted supernatant, cpYFP 263/265; assay type: biochemical; settings: 1 mM tryptophan, disrupted supernatant of E. coli
T5 construct: His-tag; pCDF, E. coli JM109(DE3) disrupted supernatant
Description: (§2) Tryptophan response screening was performed with disrupted supernatants of E. coli expressing the 31ft-cpYFP fusion protein, and the detection signal of the fusion fluorescent protein containing 1 mM tryptophan was divided by the detection signal of the fusion fluorescent protein without tryptophan.

[6] = biological target: T6, Streptococcus pneumoniae tryptophan-binding protein 31ft (SEQ ID NO: 1) with cpYFP inserted at 263/266, SEQ ID NO: 7 (Streptococcus pneumoniae, UniProt A0A0H2UPV6, DELINS312-313[…]); experiment: Tryptophan response screening, disrupted supernatant, cpYFP 263/266; assay type: biochemical; settings: 1 mM tryptophan, disrupted supernatant of E. coli
T6 construct: His-tag; E. coli JM109(DE3), disrupted supernatant
Description: as §2

[7] = biological target: T7, Streptococcus pneumoniae tryptophan-binding protein 31ft (SEQ ID NO: 1) with cpYFP inserted at 263/267, SEQ ID NO: 8 (Streptococcus pneumoniae, UniProt A0A0H2UPV6, DELINS312-314[…]); experiment: Tryptophan response screening, disrupted supernatant, cpYFP 263/267; assay type: biochemical; settings: 1 mM tryptophan, disrupted supernatant of E. coli
T7 construct: His-tag; E. coli JM109(DE3), disrupted supernatant
Description: as §2

[8] = biological target: T8, Streptococcus pneumoniae tryptophan-binding protein 31ft (SEQ ID NO: 1) with cpYFP inserted at 263/268, SEQ ID NO: 9 (Streptococcus pneumoniae, UniProt A0A0H2UPV6, DELINS312-315[…]); experiment: Tryptophan response screening, disrupted supernatant, cpYFP 263/268; assay type: biochemical; settings: 1 mM tryptophan, disrupted supernatant of E. coli
T8 construct: His-tag; E. coli JM109(DE3), disrupted supernatant
Description: as §2

[9] = biological target: T9, Streptococcus pneumoniae tryptophan-binding protein 31ft (SEQ ID NO: 1) with cpGFP (SEQ ID NO: 3) inserted at 263/265 (Streptococcus pneumoniae, UniProt A0A0H2UPV6, DEL312-312); experiment: Tryptophan response screening, disrupted supernatant, cpGFP 263/265; assay type: biochemical; settings: method of Example 2 (1 mM tryptophan)
T9 construct: E. coli disrupted supernatant
Description: as §2
(§3) According to the method in Example 2, cpYFP was replaced with cpGFP to construct a tryptophan green fluorescent protein fluorescent sensor.

[10] = biological target: T10, Streptococcus pneumoniae tryptophan-binding protein 31ft (SEQ ID NO: 1) with cpGFP (SEQ ID NO: 3) inserted at 263/266 (Streptococcus pneumoniae, UniProt A0A0H2UPV6, DEL312-313); experiment: Tryptophan response screening, disrupted supernatant, cpGFP 263/266; assay type: biochemical; settings: method of Example 2 (1 mM tryptophan)
T10 construct: E. coli disrupted supernatant
Description: as §2, §3

[11] = biological target: T11, Streptococcus pneumoniae tryptophan-binding protein 31ft (SEQ ID NO: 1) with cpGFP (SEQ ID NO: 3) inserted at 263/267 (Streptococcus pneumoniae, UniProt A0A0H2UPV6, DEL312-314); experiment: Tryptophan response screening, disrupted supernatant, cpGFP 263/267; assay type: biochemical; settings: method of Example 2 (1 mM tryptophan)
T11 construct: E. coli disrupted supernatant
Description: as §2, §3

[12] = biological target: T12, Streptococcus pneumoniae tryptophan-binding protein 31ft (SEQ ID NO: 1) with cpGFP (SEQ ID NO: 3) inserted at 263/268 (Streptococcus pneumoniae, UniProt A0A0H2UPV6, DEL312-315); experiment: Tryptophan response screening, disrupted supernatant, cpGFP 263/268; assay type: biochemical; settings: method of Example 2 (1 mM tryptophan)
T12 construct: E. coli disrupted supernatant
Description: as §2, §3

[13] = biological target: T13, Streptococcus pneumoniae tryptophan-binding protein 31ft with cpYFP inserted at 263/266, mutant T259F, optical sensor 31ft-263/266-cpYFP-T259F, SEQ ID NO: 31 (Streptococcus pneumoniae, UniProt A0A0H2UPV6, DELINS312-313[…]/T307F); experiment: Fluorescence spectra and tryptophan response of purified 31ft-263/266-cpYFP-T259F; assay type: biochemical
T13 construct: His-tag; E. coli, purified
Description: 6. […] The determination of the absorption spectrum and fluorescence spectrum of the sample is completed by a spectrophotometer and a fluorescence spectrophotometer.
Detection of fluorescence spectra was performed using a fluorescence spectrophotometer after subjecting purified tryptophan optical sensor 31ft-263/266-cpYFP-T259F to 0 mM and 1 mM tryptophan treatments for 10 min, respectively.
Determination of emission spectra: excitation spectra were recorded with an fixed excitation wavelength of 420 nm and 485 nm and an emission range of 470-600 nm and 490-600 nm, read every 5 nm.

[14] = system: Streptococcus pneumoniae 31ft-cpYFP optical sensor mutants L84F, F202W, K214F, K214W, Y217F, Y217W, K255F, K255W, T259F, T259W, I283F and I283W; experiment: Fluorescence detection of purified mutated cpYFP optical sensors; assay type: biochemical; settings: purified proteins; FIG. 8
Description: The plasmids pCDF-31ft-263/265-cpYFP, pCDF-31ft-263/266-cpYFP, pCDF-31ft-263/267-cpYFP were linearized by PCR with the primers containing the base sequence of the desired mutation site.
Phosphorus was added to the obtained PCR products under the action of PNK, T4 DNA ligase and PEG4000, thereby obtaining mutant plasmids of 15 sites of H13, T71, L84, D93, K105, N117, T130, V170, V192, F202, K214, Y217, K255, T259, 1283, and the sequencing was completed by Jie Li Sequencing Company. An exemplary nucleic acid sequence is set forth in SEQ ID NO:40 (263/266-T259F).

HeLa cells = experiment: Dynamic monitoring of tryptophan transmembrane transport in HeLa cells expressing the optical sensor in the cytosol; assay type: cell-based; settings: 1 mM tryptophan, 30 min, HBSS
Description: 1. The pCDNA3.1+-based tryptophan optical sensor plasmid was transfected into HeLa by the transfection reagent Lipofectamine2000 (Invitrogen), and cultured in a cell incubator at 37° C., 5% CO2. Fluorescence detection was performed 24-36 h after the exogenous gene was fully expressed.
2. After induction of expression, adherent HeLa cells were washed three times with PBS and placed in HMS solution for fluorescence microscopy and microplate reader assays, respectively.
Add 1 mM tryptophan and continue the assay for 30 minutes.

[15] = biological target: tryptophan optical sensor (Streptococcus pneumoniae tryptophan-binding protein 31ft fusion) (Streptococcus pneumoniae, UniProt A0A0H2UPV6); experiment: Highest response of the tryptophan optical sensor provided in this application; assay type: biochemical
[16] = 420/485 fluorescence ratio, concentration gradient tryptophan

Structure (SMILES): N[C@@H](Cc1ccc(O)cc1)C(=O)O [tyrosine]
- response to amino acid (specific detection) [1]: 1.25 times
- response to amino acid (specific detection) [2]: 1.26 times

Structure (SMILES): N[C@@H](Cc1ccccc1)C(=O)O [phenylalanine]
- response to amino acid (specific detection) [1]: 1.37 times
- response to amino acid (specific detection) [2]: 1.34 times

Structure (SMILES): N[C@@H](Cc1c[nH]c2ccccc12)C(=O)O [tryptophan, L-tryptophan]
- change amplitude [1, 16]: 4.2 times
- change amplitude [2, 16]: 5.3 times
- change amplitude [3]: 3.3 times
- change amplitude [4]: 3.0 times
- response to tryptophan (signal with / without tryptophan) [5]: more than 1.5 times
- response to tryptophan (signal with / without tryptophan) [6]: more than 1.5 times
- response to tryptophan (signal with / without tryptophan) [7]: more than 1.5 times
- response to tryptophan (signal with / without tryptophan) [8]: more than 1.5 times
- response to tryptophan [9]: more than 1.5 times
- response to tryptophan [10]: more than 1.5 times
- response to tryptophan [11]: more than 1.5 times
- response to tryptophan [12]: more than 1.5 times
- decrease in fluorescence intensity under excitation at 460 nm, compared to 0 mM tryptophan ([13]; 1 mM tryptophan, 10 min): 0.26 fold
- fluorescence intensity excited at 420 nm, relative to 0 mM tryptophan ([13]; 1 mM tryptophan, 10 min): 1.1 times
- response to tryptophan ([13]; purified protein): more than 2.5 fold
- response to tryptophan [14]: more than 2.5 times
- highest 485/420 ratio relative to the initial value (HeLa cells): 1.3 times
- highest response to tryptophan, increase of the control [15]: more than 9 fold
